“And” between values parts separate entries of the source, which are not always exact repeats. Equal values may be shown once.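 Assay format: 96-well plates, 48-hour exposure. GI50 is the concentration that inhibits growth by half. TGI is the concentration that stops growth completely.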
How the values were obtained:
Test in all cases: inhibition of tumour cell growth, NCI panel, 48 h
MDA-MB-435 = test system: MDA-MB-435
HOP-62 NSCLC = test system: HOP-62 NSCLC
HL-60(TB) leukemia = test system: HL-60(TB) leukemia
SF-295 CNS = test system: SF-295 CNS
NCI-H226 lung = test system: NCI-H226 lung
LOX IMVI melanoma = test system: LOX IMVI melanoma
HCT-15 colon = test system: HCT-15 colon
ACHN renal = test system: ACHN renal
HOP-92 NSCLC = test system: HOP-92 NSCLC
OVCAR-3 ovarian = test system: OVCAR-3 ovarian
NCI-H23 lung = test system: NCI-H23 lung
DU-145 prostate = test system: DU-145 prostate

| SMILES | TGI (MDA-MB-435) [µM] | TGI (HOP-62 NSCLC) [µM] | TGI (HL-60(TB) leukemia) [µM] | TGI (SF-295 CNS) [µM] | TGI (NCI-H226 lung) [µM] | TGI (LOX IMVI melanoma) [µM] | TGI (HCT-15 colon) [µM] | TGI (ACHN renal) [µM] | TGI (HOP-92 NSCLC) [µM] | TGI (OVCAR-3 ovarian) [µM] | TGI (NCI-H23 lung) [µM] | TGI (DU-145 prostate) | GI50 (MDA-MB-435) [µM] | GI50 (HOP-62 NSCLC) [µM] | GI50 (DU-145 prostate) [µM] | GI50 (HCT-15 colon) [µM] | GI50 (ACHN renal) [µM] | GI50 (NCI-H23 lung) [µM] |
| --- | --- | --- | --- | --- | --- | --- | --- | --- | --- | --- | --- | --- | --- | --- | --- | --- | --- | --- |
| CN(C)CCNC(=O)c1ccc(NCCCN(C)CCCNc2ccc(C(=O)NCCN(C)C)c3[nH]c4ccccc4c(=O)c23)c2c(=O)c3ccccc3[nH]c12 | 0.194 | 0.459 | 0.659 | 1.31 | 0.609 | 0.179 | 4.52 | 1.71 | 3.82 | 0.694 | 0.315 | – | – | – | – | – | – | – |
| O=CNNC(=O)Nc1cccc2ccccc12 | > 100 | > 100 | > 100 | > 100 | > 100 | – | > 100 | > 100 | – | – | > 100 | > 100 µM | – | – | – | – | – | – |
| CCC1(N=[N+]=[N-])C(=O)c2ccccc2N(C)C1=O (centres undefined) | – | > 100 | > 100 | > 100 | – | > 100 | > 100 | > 100 | > 100 | > 100 | > 100 | – | – | – | – | – | – | – |
| Brc1ccc(C[P+]2(c3ccccc3)CCCCC2)cc1 | – | > 100 | 75.8 | > 100 | > 100 | > 100 | > 100 | > 100 | – | > 100 | > 100 | – | – | – | – | – | – | – |
| O=S(=O)(O)c1cc(N=Nc2c(O)ccc3ccccc23)ccc1/C=C/c1ccc(N=Nc2c(O)ccc3ccccc23)cc1S(=O)(=O)O | > 100 | > 100 | – | > 100 | > 100 | – | > 100 | > 100 | > 100 | > 100 | > 100 | – | – | – | – | – | – | – |
| N#CN/C(N)=N/C/N=C(\N)NC#N | – | > 100 | > 100 | > 100 | > 100 | – | 50.2 | > 100 | > 100 | > 100 | > 100 | – | – | – | – | – | – | – |
| NC(=S)/N=C(/c1nc2ccc(Cl)cc2[nH]c1=O)C(O)c1ccccc1Cl (centres undefined) | – | > 100 | > 100 | > 100 | > 100 | > 100 | > 100 | > 100 | > 100 | – | > 100 | – | – | – | – | – | – | – |
| [N-]=[N+]=NC(c1cn(C2CC(O)C(CO)O2)c(=O)[nH]c1=O)C(Br)Br (centres undefined) | – | > 100 | > 100 | > 100 | > 100 | > 100 | > 100 | > 100 | > 100 | > 100 | > 100 | – | – | – | – | – | – | – |
| O=C1c2cc(Cl)ccc2NC(=NC2CCCC2)C2CSCN12 (centres undefined) | > 100 | > 100 | – | > 100 | > 100 | > 100 | > 100 | > 100 | – | > 100 | – | > 100 µM | – | – | – | – | – | – |
| CCOC(=O)c1[nH]c(Br)c(-c2ccc(OC)c(OC)c2)c1Br | 0.00973 | 14.8 | 1.99 | 0.0356 | 1.65 | – | 15.4 | 22.6 | – | – | – | 4.65 µM and 18.3 µM | 0.00279 | 0.0253 | 0.0155 | 0.04 | 0.239 | 7.83 |
| O=C(/C=C/c1ccccc1)CSc1ncn[nH]1 | – | > 100 | > 100 | > 100 | > 100 | – | > 100 | > 100 | – | > 100 | > 100 | > 100 µM | – | – | – | – | – | – |
| CCOC(=O)c1nnsc1N/N=C\c1ccc([N+](=O)[O-])cc1 | > 100 | > 100 | – | > 100 | > 100 | – | > 100 | > 100 | – | > 100 | > 100 | > 100 µM | – | – | – | – | – | – |
| O=c1cc(CO)oc2c3c(cc(O)c12)OCC(COC1OC(CO)C(O)C(O)C1O)=CC3 (centres undefined) | – | > 100 | > 100 | > 100 | > 100 | > 100 | > 100 | > 100 | > 100 | > 100 | > 100 | – | – | – | – | – | – | – |
| CCOc1ccc2[nH]c3c(C)c4ccncc4c(C)c3c2c1 | – | 2.3 | – | 2.19 | 4.24 | 2.49 | 1.61 | 2.25 | 3.07 | 17.7 | 3.01 | – | – | – | – | – | – | – |
| COc1ccc(C(c2c(O)c3ccccc3n(-c3ccccc3)c2=O)c2c(O)c3ccccc3n(-c3ccccc3)c2=O)cc1 | – | > 100 | – | – | > 100 | > 100 | > 100 | > 100 | > 100 | > 100 | > 100 | – | – | – | – | – | – | – |
| COC(=O)CCC1=C(CC(=O)OC)C(C)(OC)N=C1NC(=O)OCc1ccccc1 (centres undefined) | > 100 | > 100 | – | > 100 | > 100 | > 100 | > 100 | > 100 | – | – | > 100 | > 100 µM | – | – | – | – | – | – |
| COc1ccc(C(=O)O[C@H]2[C@@H]3C=CO[C@@H](OC4OC(CO)C(O)C(O)C4O)[C@@H]3[C@@]3(CO)O[C@@H]23)cc1O (some centres undefined) | – | > 100 | > 100 | > 100 | – | > 100 | – | > 100 | > 100 | > 100 | > 100 | – | – | – | – | – | – | – |
| NC1=C(NC(=O)Cc2ccccc2F)C(=O)c2ccccc2C1=O | – | 51 | > 100 | > 100 | > 100 | – | > 100 | > 100 | 98.1 | 66.9 | > 100 | – | – | – | – | – | – | – |
